According to patent US6894062B1, “Quinoline derivatives” (Pfizer Inc., priority 2002, dated 2005):
pKi: −log10 of the molar value. Where two headings read alike, the source gives them in different places.

Molecular target: T1, Rat 5HT7 Receptors (Rattus norvegicus, UniProt P32305)
T1 construct: expressed in transfected cells; host or cells: HEK-293
Experiment: 3H-5-Carboxamidotryptamine (3H-5-CT) binding to rat 5HT7 receptors expressed in HEK-293 cells
Procedure: The affinities of the active compounds for 5HT7 receptors can be determined using standard radioligand binding assays as described in the literature. The 5HT7 affinity can be measured using the following procedure.
^3H-5-Carboxamidotryptamine (^3H-5-CT) Binding to Rat 5HT7 Receptors Expressed in HEK-293 Cells: […]
Nonspecific binding is determined using 1 uM 5-HT creatinine sulfate. […] Radioactivity is quantified by liquid scintillation counting using a BetaPlate counter (LKB).
The percent inhibition of specific binding is calculated for each concentration of test compound. […] Ki values are calculated according to Cheng & Prusoff: Ki=IC50/(1+(L/Kd)), where L is the concentration of the radioligand used in the experiment and the Kd value is the dissociation constant for the radioligand determined in separate saturation experiments. […]

T1 sequence (P32305 whole entry): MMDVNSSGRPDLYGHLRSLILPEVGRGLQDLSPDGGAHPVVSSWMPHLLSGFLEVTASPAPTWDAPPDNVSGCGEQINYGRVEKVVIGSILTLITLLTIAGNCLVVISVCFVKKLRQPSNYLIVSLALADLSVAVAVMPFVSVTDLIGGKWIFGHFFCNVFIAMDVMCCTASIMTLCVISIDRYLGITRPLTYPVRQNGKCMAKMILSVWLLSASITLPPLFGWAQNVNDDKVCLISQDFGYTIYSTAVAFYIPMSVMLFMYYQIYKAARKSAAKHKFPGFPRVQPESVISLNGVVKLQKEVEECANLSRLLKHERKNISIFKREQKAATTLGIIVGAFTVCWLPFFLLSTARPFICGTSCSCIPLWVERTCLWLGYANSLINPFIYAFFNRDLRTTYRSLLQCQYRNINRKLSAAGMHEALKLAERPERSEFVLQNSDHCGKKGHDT

SMILES | pKi | pKi (3H-5-CT 0.4 nM radioligand, HEK-293 cell membranes expressing rat 5HT7, Cheng & Prusoff, read-out: Ki)
Cc1cnc2c(C3CCCNC3)cccc2c1 (racemic) [Example 8, 3-Methyl-8-Piperidin-3-yl-Quinoline] | ~8.12 | –
CCc1cnc2cc(C3CCCNC3)ccc2c1 (racemic) [Example 10, 3-Ethyl-7-Piperidin-3-yl-Quinoline] | – | ~6.30
